In this experiment the test system is sensitized rat intestine. Nature of the experiment: In vitro anaphylaxis: ovalbumin (antigen)-induced contractile response of sensitized rat intestine in organ bath. Type of experiment: cell-based. Conditions: control peptide feG 10^−8 M.

Description: Data are expressed as the mean +/− standard error. The data were analyzed using Student's t test for paired samples. Significant differences were accepted if p <0.05. Outlier analysis was performed using a modified Z-score that uses the median of absolute deviation A Z-score with an absolute value of greater than 4.0 was labeled as a potential outlier, and the corresponding data value was excluded.
Male Sprague Dawley rats (Charles River Laboratories, Montreal, QC) of initial weights of 150 g were maintained with lights on from 700 to 1900 h and given food and water ad libitum. The rats were sensitized to 1 mg ovalbumin (OA) using 50 ng of pertussis toxin (Sigma-Aldrich, St. Louis, Mo.) as an adjuvant.
Five to eight weeks following sensitization, the terminal duodenum of the rats was excised and 1 cm sections were mounted in 25 ml organ baths, containing bicarbonate Krebs′ buffer, with 1.0 g of tension. The isometric force generated in response to OA and carbachol (CAR; (2-[(aminocaronyl)oxyl-N,N,N-trimethylethanaminium), a cholinergic agonist, (Sigma-Aldrich) was measured using a Grass Force Displacement Transducer FTO3 (Quincy, MA>. Data were recorded with PolyView software (Polybytes, Inc., Cedar Rapids, Iowa). The tissues were allowed to equilibrate for 30 min during which they were washed several times with buffer, and applied tension was adjusted.
Eight tissue segments were mounted in separate tissue baths, with one tissue segment serving to evaluate if the intestinal tissues elicit a contractile response to the antigen. […] In the absence of a contractile response to antigen the tissues were discarded, and another animal taken.
Once peak contractile responses were attained the tissues were washed three times, baseline re-established and peak contractile response to 10^−5M CAR obtained. The mucosa was then scraped from the tissue, and the mass of the muscle determined. Responses were determined as grams of force/mg wet tissue.
Contractile responses to OA and CAR were measured at peak contraction, and calculated as grams of force per gram wet tissue. Results are expressed in three formats: • i) the amplitude of the OA-induced contractile response (grams of force/mg wet tissue), • ii) the ratio of the Bee Bloom response to the OR response (Bee Bloom/OA) (i.e. animal matched control), • iii) the ratio of the OA and CAR-induced contractile responses (ONCAR) (i.e. tissue matched controls).

For the substance “D-phenylalanine-D-glutamate-Glycine [control]”, the “inhibition of antigen-induced contractions (FIGS. 1 and 2)” value is recorded as “significantly inhibited”; the “inhibition of antigen-induced contractions, ratio to OA response, animal matched control (FIG. 3)” value is “significantly inhibited”; the “inhibition of the OA:CAR ratio, tissue matched controls (FIG. 4)” value is “did not significantly inhibit”. Also, the “inhibition of antigen-induced contractions” value (stated as closely matched by Bee Bloom) is about −40%.

The values above are taken from patent US10300092B2, “Bee bloom compositions, methods of extraction and uses thereof” (KANE, Penny Coleen, priority 2011, dated 2019).
